Patent US6900010B2, “Compositions and methods for detecting human immunodeficiency virus” (MUSC Foundation For Research Development, priority 1999, dated 2005)

Tested on: HIV (strain GRCSF) in HeLaD4R4 cells
Test: HIV infection of HeLaD4R4 cells with lacZ reporter, X-gal staining
Format: cell-based
Text: A recombinant cell line was established from human cervical cancer HeLa cells. The HeLa cells were cotransfected with an expression vector (pRepD4R4) and a vector (pTAR3Clac) at a 1:1 ratio. As shown in FIG. 2A the expression vector pRepD4R4 includes CD4 receptor and CXCR4 receptor genes that are separated by an IRES sequence. As shown FIG. 2B the vector pTAR3Clac includes a reporter sequence comprising a promoter region that includes three copies of TAR sequences and a CMV basic promoter, and a lacZ reporter gene whose expression is under the control of the promoter. The stably-transfected cells were selected by culturing in medium containing G418 at 900 μg/ml. Each clone of the cells selected was subsequently cultured in duplicates, and one of the duplicates was infected with a low titer HIV stock solution. The low-titer HIV stock was collected from supernatant of a HeLa cell culture that was transfected with a B-cell tropic HIV provirus DNA (strain GRCSF) and incubated for 3 days post transfection.
Upon infection of HIV contained in the stock solution, Tat protein expressed from the viral genome binds to TAR and induces expression of lacZ reporter gene to produce high level of β-galactosidase. The cell clones expressing β-galactosidase and stained blue with X-gal were identified, and the cells from the uninfected duplicate of the darkest blue colony were propagated. […]

## Cc1cn([C@H]2C[C@H](N=[N+]=[N-])[C@@H](CO)O2)c(=O)[nH]c1=O [AZT, zidovudine]
AZT 100 μg/ml, four days of incubation, HeLaD4R4 cells
  cells infected and stained blue (HIV replication and infection): only a few clusters of cells were infected and stained blue
In the presence of AZT, FIG. 3F compared with FIGS. 3B-3E
  expression of the reporter gene: significantly reduced
